In paper PMC5011342, “A high throughput drug screening assay to identify compounds that promote oligodendrocyte differentiation using acutely dissociated and purified oligodendrocyte precursor cells” (BMC Research Notes, 2016):
“Also recorded” adds a separate entry of the source. Where two headings read alike, the source gives them in different places.

Assays:
[1] = test system: acutely dissociated and purified rat OPCs; experiment: Acute OL differentiation assay (MBP expression/cell, immunofluorescent image quantification); format: cell-based; conditions: for hit in OL differentiation assay, MRF-TMC: ● = confirmed hit in this paper's assay; for EC50: average EC50 for induction of OL differentiation from independent biological replicates, eight concentrations
Protocol: In order to identify compounds with the potential to promote OL differentiation in vivo and thereby enhance remyelination, we first wanted to establish an in vitro assay system that would closely mimic conditions in vivo. To do this, we started by using OPCs acutely isolated from postnatal day 6–7 (P6–7) rat brains by O4 immunopanning. […] OPCs were plated directly onto a biological substrate (PDL/laminin) in 96-well view plates at moderate density to allow for sufficient room to expand processes during differentiation. We plated cells in serum-free medium lacking OPC mitogens (no PDGF or FGF) to allow a basal level of OL differentiation to commence, and as a positive control added thyroid hormone (T3, 40 ng/ml) to accelerate differentiation (Fig. 1, flow scheme).
Fig. 1 Flow scheme of the acute OL differentiation assay. a Purified oligodendrocyte precursor cells (OPCs) were cultured from P7 rat cortex and plated into PDL/laminin pre-coated 96-well plates. b One hour later test compounds were added. c OPC cultures with compound were maintained in culture for an additional 4 days. d On the 5th day with compound, cells were fixed and immunostained with anti-MBP antibodies and DAPI. e Images were acquired with automated fluorescence microscopy and scored phenotypically for OL differentiation (see “Methods” section)
To quantify the extent of OL differentiation occurring in treatment conditions, we measured the overall amount of MBP expression/cell (see “Methods” section). Figure 2a depicts the mask created over MBP staining under which the MBP expression was quantified. […]
All animal work was carried out in strict accordance with the recommendations in the Guide for the Care and Use of Laboratory Animals of the National Institutes of Health. The protocol was approved by the Institutional Use and Care and Use Committee at the Molecular Medicine Research Institute (Sunnyvale, CA). Animals used for OPC isolation in these studies were euthanized by decapitation. OPCs from brains of P6-P7 Sprague–Dawley rat pups (Charles River, Wilmington, MA, USA) were enriched by immunopanning as previously described (Dugas et al. 2006). Briefly, single cell suspensions were obtained from papain-digested neonatal brains and depleted of mature glial cells by successive panning with RAN-2- and GalC-coated plates, followed by enrichment for OPCs using O4-coated plates. OPCs were plated in differentiation media (DMEM, 100 U/ml Penicillin/100 µg/ml streptomycin, 2 mM L-glutamine, 1 mM Na pyruvate, 5 µg/ml insulin, 5 µg/ml N-acetyl-L-cysteine, 1× trace elements B,10 ng/ml d-Biotin, 100 µg/ml BSA, 100 µg/ml apo-transferrin, 16 µg/ml putrescine, 60 ng/ml progesterone, 40 ng/ml sodium selenite 5 ng/ml forskolin, 10 ng/ml CNTF, 1 ng/ml NT-3).
Acutely enriched OPCs were plated in differentiation media at 5000 cells/well into PDL/laminin coated 96-well view plates and centrifuged at 200×g to facilitate cell attachment, survival, and even distribution of OPCs. OPCs were pre-incubated for 1–2 h at 37 °C in 10 % CO2, followed by the addition of test compounds in quadruplicate. Controls were added in eight replicate wells, negative control = 0.1 % DMSO; positive control = 40 ng/ml T3. The day of OPC plating was considered DIV0. On DIV4, cells were fixed, immunostained for myelin basic protein (MBP) expression, imaged and quantified as described below.

expanded OPCs = experiment: cells; conditions: for viability at 0.1 µM / viability at 1 µM / viability at 10 µM: Rattus norvegicus, 72 h
Protocol: Having established a consistent assay for measuring OL differentiation in vitro, the next step was to utilize this assay to assess the ability of a wide array of compounds to promote OL differentiation. Prior to library screening, we first established the maximum non-toxic dose of each compound in the library. […] Therefore, we added each compound in the NIH clinical collection (NCC) library to OPCs at 10, 1, and 0.1 µM concentrations. Three days later, we assessed viability of the treated cells by measuring AlamarBlue fluorescence, a measure of cell viability (see “Methods” section). […] Appropriately, we established three sets of screening concentrations for library compounds: non-toxic compounds were tested at 10 and 2 µM, slightly toxic compounds (only toxic at 10 µM) were tested at 2 and 0.4 µM, and very toxic compounds were tested at 0.4 and 0.08 µM.
OPCs were expanded in vitro by seeding into PDL-coated tissue culture flasks at 1000–2000 cells/cm^2 in differentiation media supplemented with 10 ng/ml PDGF-AA. Proliferating OPCs were fed every 2–3 days and supplemented with 2–3× concentration of PDGF as needed to prevent OPC differentiation. After 6–7 days of proliferation, OPCs were harvested by trypsinization, plated into PDL-coated 96-well Falcon plates and centrifuged at 200×g to facilitate cell attachment, survival, and even distribution of cells. Expanded OPCs were seeded in differentiation media at 10,000 cells/well and incubated for 2 h at 37 °C, 10 % CO2 prior to addition of compounds. The NCC library was diluted and added to cells at 10, 1, and 0.1 µM; each concentration was tested in quadruplicate. As a positive control for the induction of toxicity, 5 ng/ml tunicamycin was added to 8 wells in each plate. Three days later, a 1:10 dilution of alamarBlue® (AB) was added to each well and cells were incubated 4 h at 37 °C, 10 % CO2. AB fluorescence was measured using a PerkinElmer Victor II fluorescence microplate reader (PerkinElmer, Waltham, MA) with 560 nm excitation/590 nm emission filters. For library screening, the highest concentration of each compound was adjusted to a minimally toxic concentration based on this toxicity data. Compounds were additionally tested at a second concentration that was 1/5th of the top concentration. The final concentration of DMSO in each well was 0.1 %.

[2] = 2 uM test compound, relative to quetiapine, sheet "All OLga data"
[3] = 10 uM test compound, relative to quetiapine, sheet "All OLga data"
[4] = alamarBlue viability of expanded OPCs, compound at 0.1 µM, sheet All Tox data
[5] = alamarBlue viability of expanded OPCs, compound at 1 µM, sheet All Tox data
[6] = alamarBlue viability of expanded OPCs, compound at 10 µM, sheet All Tox data
[7] = Rattus norvegicus, 2 uM test compound, relative to quetiapine, sheet "All OLga data", read-out: OL differentiation, 2 uM (% Quet)
[8] = Rattus norvegicus, 10 uM test compound, relative to quetiapine, sheet "All OLga data", read-out: OL differentiation, 10 uM (% Quet)
[9] = read-out: 0.1 µM (% DMSO), alamarBlue viability of expanded OPCs, compound at 0.1 µM, sheet All Tox data
[10] = read-out: 1 µM (% DMSO), alamarBlue viability of expanded OPCs, compound at 1 µM, sheet All Tox data
[11] = read-out: 10 µM (% DMSO), alamarBlue viability of expanded OPCs, compound at 10 µM, sheet All Tox data
[12] = read-out: 0.1 µM (% DMSO), alamarBlue viability, NCC library compound at 0.1 µM, sheet "All Tox data"
[13] = read-out: 1 µM (% DMSO), alamarBlue viability, NCC library compound at 1 µM, sheet "All Tox data"
[14] = read-out: 10 µM (% DMSO), alamarBlue viability, NCC library compound at 10 µM, sheet "All Tox data"
[15] = Rattus norvegicus, test compound at 2 uM, NCC library screen, sheet "All OLga data", relative to quetiapine, read-out: 2 uM (% Quet)
[16] = Rattus norvegicus, test compound at 10 uM, NCC library screen, sheet "All OLga data", relative to quetiapine, read-out: 10 uM (% Quet)

## Cl.FC(F)(F)c1cccc(N2CCNCC2)c1
[1]; [2]
  OL differentiation, 2 uM (% Quet): 23.8 % Quet
[1]; [3]
  OL differentiation, 10 uM (% Quet): 20.8 % Quet
Expanded OPCs; [4]
  0.1 µM (% DMSO): 91.5 % DMSO
Expanded OPCs; [5]
  1 µM (% DMSO): 101.9 % DMSO
Expanded OPCs; [6]
  10 µM (% DMSO): 76.4 % DMSO

## CC=CC(=O)N(CC)c1ccccc1C (mixture of isomers) [Crotamiton]
[1]; [7]
  activation at 2 µM: 1.7%
[1]; [8]
  activation at 10 µM: 1.9%
Expanded OPCs; [9]
  viability at 0.1 µM: 92.3%
Expanded OPCs; [10]
  viability at 1 µM: 106%
Expanded OPCs; [11]
  viability at 10 µM: 97.8%

## Oc1cc2c(cc1O)[C@H]1c3ccccc3CN[C@@H]1CC2 (racemic) [Dihydrexidine]
[1]; Rattus norvegicus, test compound at 0.08 uM, NCC library screen, sheet "All OLga data", relative to quetiapine, read-out: 0.08 uM (% Quet)
  activation at 0.08 µM: -13.3%
[1]; Rattus norvegicus, test compound at 0.4 uM, NCC library screen, sheet "All OLga data", relative to quetiapine, read-out: 0.4 uM (% Quet)
  activation at 0.4 µM: -27.6%
Expanded OPCs; [12]
  viability at 0.1 µM: 81.4%
Expanded OPCs; [13]
  viability at 1 µM: 37.9%
Expanded OPCs; [14]
  viability at 10 µM: 9.8%

## c1ccc(Cn2ccnc2)cc1 [1-Benzylimidazole]
[1]; [15]
  activation at 2 µM: 0.1%
[1]; [16]
  activation at 10 µM: 10.7%
Expanded OPCs; [12]
  viability at 0.1 µM: 85.4%
Expanded OPCs; [13]
  viability at 1 µM: 91.8%
Expanded OPCs; [14]
  viability at 10 µM: 94.3%

## O=c1[nH]cnc2c1ncn2[C@H]1CC[C@@H](CO)O1 [2',3'-Dideoxyinosine]
[1]; [7]
  activation at 2 µM: 10%
[1]; [8]
  activation at 10 µM: -0.07%
Expanded OPCs; [9]
  viability at 0.1 µM: 88.6%
Expanded OPCs; [10]
  viability at 1 µM: 88.2%
Expanded OPCs; [11]
  viability at 10 µM: 86.2%

## NCCc1ccccn1 [2-(2-aminoethyl)pyridine]
[1]; [15]
  activation at 2 µM: 20.5%
[1]; [16]
  activation at 10 µM: 16.9%
Expanded OPCs; [12]
  viability at 0.1 µM: 97.5%
Expanded OPCs; [13]
  viability at 1 µM: 81.9%
Expanded OPCs; [14]
  viability at 10 µM: 73.2%

## Nc1nc(Cl)nc2c1ncn2[C@@H]1O[C@H](CO)[C@@H](O)[C@H]1O [2-Chloroadenosine]
[1]; [2]
  OL differentiation, 2 uM (% Quet): 8.0 % Quet
[1]; [3]
  OL differentiation, 10 uM (% Quet): 32.5 % Quet
Expanded OPCs; alamarBlue viability, NCC library compound at 0.1 µM, sheet "All Tox data"
  0.1 µM (% DMSO): 113.1 % DMSO
Expanded OPCs; alamarBlue viability, NCC library compound at 1 µM, sheet "All Tox data"
  1 µM (% DMSO): 99.2 % DMSO
Expanded OPCs; alamarBlue viability, NCC library compound at 10 µM, sheet "All Tox data"
  10 µM (% DMSO): 99.5 % DMSO

## O=C1NC(C(=O)O)CS1 (stereo not shown) [2-oxothiazolidine-4-carboxylic acid]
[1]; [2]
  OL differentiation, 2 uM (% Quet): -5.5 % Quet
[1]; [3]
  OL differentiation, 10 uM (% Quet): 20.5 % Quet
Expanded OPCs; [4]
  0.1 µM (% DMSO): 78.9 % DMSO
Expanded OPCs; [5]
  1 µM (% DMSO): 89.6 % DMSO
Expanded OPCs; [6]
  10 µM (% DMSO): 83.7 % DMSO

## Cc1c(C(=O)NN2CCCCC2)nn(-c2ccc(Cl)cc2Cl)c1-c1ccc(I)cc1 [AM 251]
[1]
  0.4 uM (% Quet): -5.0 % Quet
  2 uM (% Quet): -199.0 % Quet

## COc1cc2c(cc1OC)C(=O)C(CC1CCN(Cc3ccccc3)CC1)C2 (stereo not shown) [Donepezil, reference compound]
[1]; [7]
  activation at 2 µM: 94.8%
[1]; [8]
  activation at 10 µM: 75.6%
[1]
  hit in OL differentiation assay, MRF-TMC: ●

## CN(C)CCC[C@@]1(c2ccc(F)cc2)OCc2cc(C#N)ccc21 [Escitalopram, reference compound]
[1]; Rattus norvegicus
  EC50: 1.3 µM
[1]
  hit in OL differentiation assay, MRF-TMC: ●

## COc1ccc(CC(C)NCC(O)c2ccc(O)c(NC=O)c2)cc1 (stereo not shown) [Formoterol]
[1]; Rattus norvegicus, read-out: 2 uM (% Quet)
  activation at 2 µM: 4.6%
[1]; Rattus norvegicus, read-out: 10 uM (% Quet)
  activation at 10 µM: 12.1%

## CC1CCN(CCCC(=O)c2ccc(F)cc2)CC1 [Metylperon, reference compound]
[1]; Rattus norvegicus
  EC50: 7.3 µM
[1]
  hit in OL differentiation assay, MRF-TMC: ●

## COc1c(N2C[C@@H]3CCCN[C@@H]3C2)c(F)cc2c(=O)c(C(=O)O)cn(C3CC3)c12 [Moxifloxacin]
[1]; [7]
  activation at 2 µM: 20.2%
[1]; [8]
  activation at 10 µM: 16.3%

## COC(=O)C1=C(C)NC(C)=C(C(=O)OC)C1c1ccccc1[N+](=O)[O-] [Nifedipine]
[1]; Rattus norvegicus, 0.4 uM test compound, relative to quetiapine, sheet "All OLga data", read-out: OL differentiation, 0.4 uM (% Quet)
  activation at 0.4 µM: 19.7%
[1]; [7]
  activation at 2 µM: -8.9%

## Nc1nc2ccc(OC(F)(F)F)cc2s1 [Riluzole]
[1]; [7]
  activation at 2 µM: -11.1%
[1]; [8]
  activation at 10 µM: 32.6%

## N[C@@H](Cc1cc(I)c(Oc2ccc(O)c(I)c2)c(I)c1)C(=O)O [T3, triiodothyronine, reference compound]
[1]; MBP expression versus 0.1 % DMSO negative control
  promotion of OL differentiation (in words): able to promote OL differentiation at one or both concentrations tested; also recorded: consistently and significantly promote OL differentiation
